Test results published in paper PMC6063804 (EJNMMI Research, 2018).
Several values for one entry are separate records, joined by “and”; a condition that tells them apart may be missing. Equal values may be shown once. Read-outs that look alike come from different tables or passages of the source.

Legend:
[1] = test system: ion channel binding site of NMDA receptors; test: [^18F]PK-209 brain PET, test–retest and kinetic modeling; assay type: in vivo, human; details: for K i: net influx rate, individual subjects S1–S5
Method: In total, 20 PET scans were acquired on a Gemini TF-64 PET/CT scanner (Philips Medical Systems, Cleveland, OH, USA). Five subjects underwent [^18F]PK-209 test–retest (TRT) scans 31–61 days apart over a period of 211 days. Another five subjects underwent baseline and ketamine scans 13–161 days apart over a period of 258 days. At the start of each scan [^18F]PK-209 was injected as an intravenous bolus with a mean injected activity of 187 ± 7 MBq. All scans were performed between 12:00 and 15:00 h to minimize diurnal variation. Duration of daylight on each scan day was calculated to investigate seasonal changes in tracer binding. Dynamic PET data were acquired for 120 min and binned into 25 time frames (1 × 15, 3 × 5, 3 × 10, 4 × 60, 2 × 150, 2 × 300, 10 × 600 s). PET was followed by a low-dose CT (30 mAs, 120 kVp) for attenuation correction and localization. Data were reconstructed using a three-dimensional row action maximum likelihood reconstruction algorithm (3-D RAMLA). Acquired PET data were normalized and corrected for dead time, randoms, scatter, attenuation, and decay.
Prior to the PET studies, structural three-dimensional coronal T1-weighted magnetic resonance images (MRI) were acquired for all subjects on a 1.5T Sonata scanner (Siemens Medical Solutions, Erlangen, Germany) with 160 coronal slices using echo time 3.97 ms, repetition time 2700 ms, flip angle 8°, and voxel size 1.0 × 1.5 × 1.0 mm^3. Subject motion was checked by visual inspection of the alignment of intrasubject PET frames, and no frames were excluded due to excessive movement. T1-weighted MRI scans were co-registered to an average of the PET frames from ~ 4–70 min p.i. using VINCI software. The co-registered MRI scans were segmented into gray matter (GM), white matter, and extra-cerebral fluid, using PVE-lab. Subsequently, 68 regions of interest (ROIs), including whole brain, were derived from the Hammers atlas and used to extract GM time-activity curves (TACs). As a last step, the TACs of 60 out of the 67 ROIs were redefined into nine volume-weighted ROIs by combining the radioactivity at each timepoint according to the equation Bq¯=∑iαi×Bqi/∑iαi , where αi is the volume (in mm^3) of region i, and Bqi the counts per mm^3 of region i. The selection of ROIs was based on the widespread NMDA-R availability in the brain: frontal, temporal, occipital, and parietal cortices; hippocampus; thalamus; insula; brainstem; dorsal striatum; and cerebellum, as well as whole brain GM from the Hammers atlas. Standardized uptake values (SUV; equalling measured activity divided by injected dose per body weight) were calculated for whole brain GM.
Using the metabolite-corrected arterial plasma input function, all GM TACs were fitted to single-tissue (1T2k), two-tissue irreversible (2T3k), and reversible (2T4k) compartmental models, both with and without an additional parameter for fractional blood volume (VB). The non-metabolite-corrected arterial whole blood curve was used as input function for VB. The optimal tracer kinetic model for describing in vivo kinetics of [^18F]PK-209 was determined according to the Akaike Information Criterion (AIC). Depending on the model preference, outcome measures were the net influx constant (Ki = K1 k3/(k2 + k3)) or the distribution volume (VT=K1/k2(1+k3/k4)) . For subsequent group level analysis (e.g., TRT variability and ketamine effects), all scans were analyzed using the same, most preferred, tracer kinetic model. Non-displaceable distribution volumes (VND = K1/k2) as well as K1 and k3 values are also reported separately.
The absolute percentage TRT variability of kinetic parameters between test and retest scans was calculated using the equation TRT variability = 2 · (ρretest − ρtest)/(ρtest + ρretest) · 100, where ρ is the kinetic parameter of interest. The between-subject coefficient of variation was calculated as the standard deviation divided by the sample mean · 100. […]

[2] = assay type: in vivo, human; details: for activity that could not be extracted / mean parent fraction: plasma; for mean parent fraction: all 20 scans
Method: All subjects received a radial artery cannula for continuous and manual arterial sampling. For each scan, an arterial input function was obtained using an on-line blood sampler (Veenstra Instruments, Joure, The Netherlands) with a withdrawal rate of 5 mL · min^−1 during the first 5 min and 2.5 mL · min^−1 from 5 to 60 min post injection (p.i.) in order to stay within blood volume sampling constraints. Continuous blood withdrawal was interrupted briefly to manually collect arterial blood samples (10 mL each) at set timepoints (5, 10, 20, 40, 60, 75, 90, 120 min p.i.). In several subjects, an arterial sample was taken immediately before PET and incubated with [^18F]PK-209 at 37 °C to compare radioactivity recovery fractions throughout the 120 min with extracted fractions of the arterial samples taken during PET. The samples were used to measure blood and plasma radioactivity concentrations, whole blood-to-plasma ratios, and plasma metabolite fractions of [^18F]PK-209. For the latter purpose, samples were analyzed using solid-phase extraction combined with HPLC using off-line radioactivity detection.
The final arterial plasma input function was derived using both continuous and discrete arterial blood data. The input function was corrected for plasma to whole blood ratio, metabolites, and time delay. For each scan, two additional plasma input functions were generated to investigate the effect of within-subject and between-subject variability in plasma data. For the within-subject averaged input function, the mean of PET1 and PET2 [^18F]PK-209 parent fractions per subject were used at each of the eight sample timepoints for both scans. For the population-averaged input function, the mean parent fractions for all five subjects in the TRT and ketamine groups (i.e., 10 scans) were taken at each timepoint. The manual arterial blood samples were also used for assessment of the plasma ketamine concentration. The area under the ketamine concentration–time curve was estimated by means of the trapezoidal rule.
The absolute percentage TRT variability of kinetic parameters between test and retest scans was calculated using the equation TRT variability = 2 · (ρretest − ρtest)/(ρtest + ρretest) · 100, where ρ is the kinetic parameter of interest. The between-subject coefficient of variation was calculated as the standard deviation divided by the sample mean · 100. […] SUV from 90 to 120 min (SUV90–120) was calculated as the mean of the last three mid-frame SUV values.

For `CSc1ccc(Cl)c(NC(=N)N(C)c2cccc(OC[18F])c2)c1` [[^18F]PK-209, 3-(2-chloro-5-(methylthio)phenyl)-1-(3-([^18F]fluoromethoxy)phenyl)-1-methylguanidine], the “Mean test K i” value ([1]; 2T3k_VB, population IF) was 0.0152 min⁻¹, the “Mean retest K i” value ([1]; 2T3k_VB, single scan IF) was 0.0143 min⁻¹ and the “Mean test K i” value ([1]; 2T3k_VB, single scan IF) was 0.0183 min⁻¹. The “Mean retest K 1” value ([1]; human, in vivo) was 0.426 mL · cm^3 · min^−1, the “Mean retest V ND” value ([1]; human, in vivo) was 7.34 and the “Mean retest k 3” value ([1]; human, in vivo) was 0.0021 min⁻¹. For the same molecule, the “Mean test K 1” value ([1]; human, in vivo) was 0.473 mL · cm^3 · min^−1, the “Mean test K i” value ([1]; human, in vivo) was 0.0161 min⁻¹ and the “Mean test V ND” value ([1]; human, in vivo) was 9.09. For the same molecule, the “Mean test k 3” value ([1]; human, in vivo) was 0.0021 min⁻¹, the “peak uptake SUV” value ([1]; human, in vivo) was 3.6-5.7 and the “time of peak uptake” value ([1]; human, in vivo) was “around 10 min”. The “whole brain SUV90–120” value ([1]; human, in vivo) was 1.64, the “brain activity as % of the peak” value ([1]; human, in vivo, 120 min) was 25-40% and the “defluorination (radioactivity uptake in jaw and skull)” value ([1]; in vivo) was “no defluorination”. For the same molecule, the K i ([1]; 2T3k_VB, population IF, retest scan) was 0.0201 min⁻¹, the K i ([1]; 2T3k_VB, population IF, test scan) was 0.0147 min⁻¹ and 0.0193 min⁻¹ and the K i ([1]; 2T3k_VB, single scan IF, retest scan) was 0.0182 min⁻¹ and 0.0152 min⁻¹. For the same molecule, the K i ([1]; 2T3k_VB, within-subject IF, retest scan) was 0.0162 min⁻¹, the K i ([1]; 2T3k_VB, within-subject IF, test scan) was 0.0118 min⁻¹ and the “whole brain SUV90–120” value ([1]; test scans, average) was 1.68. For the same molecule, the “difference in mean blood-to-plasma ratios between test–retest and between baseline–ketamine scans” value ([2]; all eight measured timepoints) was < 3%, the “peak radioactivity concentration in plasma, mean SUV” value ([2]; arterial plasma) was 17.4 ± 2.8 and the “plasma radioactivity as % of the peak” value ([2]; at 3 min) was ~ 7%. For the same molecule, the “fractional recovery of radioactivity from plasma” value ([2]; declined over time, stabilizing) was “approximately 45%”, the “activity that could not be extracted” value ([2]; 5 min p.i.) was 15 ± 3% and the “activity that could not be extracted” value ([2]; 120 min p.i.) was 54 ± 4%. The mean parent fraction ([2]; 5 min p.i.) was 77 ± 7%, the mean parent fraction ([2]; 10 min p.i.) was 57 ± 9% and 57% and the mean parent fraction ([2]; 20 min p.i.) was 34 ± 5% and 34%. For the same molecule, the mean parent fraction ([2]; 60 min p.i.) was 19 ± 3%, the mean parent fraction ([2]; 120 min p.i.) was 14 ± 3% and the “parent fractions in baseline scans lower than the test–retest group” value ([2]; subjects 6 to 10, average) was 16%.
